The record followed here is ChEMBL document CHEMBL3046186, “Identification of ZINC02765569: a potent inhibitor of PTP1B by vHTS” (2013).

The structures appear in SMILES notation.

Experiment [1] deals with T1, Tyrosine-protein phosphatase non-receptor type 1 (Rattus norvegicus) (UniProt P20417).
T1 sequence (whole entry): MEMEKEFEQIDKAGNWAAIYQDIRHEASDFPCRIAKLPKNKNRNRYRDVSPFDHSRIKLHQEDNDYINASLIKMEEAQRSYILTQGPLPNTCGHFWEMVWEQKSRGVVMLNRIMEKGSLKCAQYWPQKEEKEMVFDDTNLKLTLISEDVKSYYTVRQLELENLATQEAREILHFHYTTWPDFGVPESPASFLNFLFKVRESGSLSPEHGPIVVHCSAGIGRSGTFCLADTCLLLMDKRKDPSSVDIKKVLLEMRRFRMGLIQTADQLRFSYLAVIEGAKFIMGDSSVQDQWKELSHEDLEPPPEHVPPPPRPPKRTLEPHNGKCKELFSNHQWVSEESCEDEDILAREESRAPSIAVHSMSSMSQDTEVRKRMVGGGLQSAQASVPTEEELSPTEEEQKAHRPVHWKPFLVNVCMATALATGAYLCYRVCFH
The experiment in a line: Ratio of rosiglitazone activity to compound activity for inhibition of PTP1B in Rattus norvegicus (rat) L6 cells. It counts as cell-based.

In experiment [2] the test system is Rattus norvegicus. The experiment in a line: Antihyperglycemic activity in sucrose-challenged streptozotocin-induced Rattus norvegicus Wistar albino (rat) diabetic model assessed as glucose reduction at 30 mg/kg measured at 24 hr relative to control. It counts as functional. Also on record: scale not given: the % may be the effect or the level left.
For experiment [3], the system named is Rattus norvegicus. Nature of the experiment: Antihyperglycemic activity in sucrose-challenged streptozotocin-induced Rattus norvegicus Wistar albino (rat) diabetic model assessed as glucose reduction at 30 mg/kg measured at 5 hr relative to control. It counts as functional. Also on record: scale not given: the % may be the effect or the level left.
For experiment [4], the system named is Rattus norvegicus. Nature of the experiment: Antihyperglycemic activity in sucrose-loaded Rattus norvegicus Wistar albino (rat) diabetic model assessed as glucose reduction at 30 mg/kg measured at 24 hr relative to control. It counts as functional. Also on record: scale not given: the % may be the effect or the level left.
The subject of experiment [5] is Rattus norvegicus. The experiment in a line: Antihyperglycemic activity in sucrose-loaded Rattus norvegicus Wistar albino (rat) diabetic model assessed as glucose reduction at 30 mg/kg measured at 5 hr relative to control. The class given is functional. Also on record: scale not given: the % may be the effect or the level left.
In experiment [6] the target is T2, Tyrosine-protein phosphatase non-receptor type 1 (Homo sapiens) (UniProt P18031).
T2 sequence (whole entry): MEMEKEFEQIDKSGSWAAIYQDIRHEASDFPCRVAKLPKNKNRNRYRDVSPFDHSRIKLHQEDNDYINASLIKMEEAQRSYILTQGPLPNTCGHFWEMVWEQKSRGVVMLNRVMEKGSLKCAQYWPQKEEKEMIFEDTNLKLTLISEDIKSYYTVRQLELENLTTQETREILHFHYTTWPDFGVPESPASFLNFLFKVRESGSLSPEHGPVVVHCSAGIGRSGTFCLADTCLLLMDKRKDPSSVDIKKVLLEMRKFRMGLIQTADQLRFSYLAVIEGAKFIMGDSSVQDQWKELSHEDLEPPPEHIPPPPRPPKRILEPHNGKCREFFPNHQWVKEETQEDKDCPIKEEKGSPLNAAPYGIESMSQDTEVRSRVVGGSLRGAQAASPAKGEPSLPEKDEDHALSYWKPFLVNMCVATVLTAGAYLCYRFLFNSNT
Nature of the experiment: Inhibition of Homo sapiens (human) recombinant PTP1B at 10 uM relative to control.

Experiment [7] deals with T1, Tyrosine-protein phosphatase non-receptor type 1 (Rattus norvegicus). The experiment in a line: Inhibition of PTP1B in Rattus norvegicus (rat) L6 cells assessed as cellular 2-deoxy-D-[U-14C]glucose uptake at 10 to 50 uM after 18 hr relative to control. It counts as cell-based.
Experiment [8] has the same target. The experiment in a line: Ratio of metformin activity to compound activity for inhibition of PTP1B in Rattus norvegicus (rat) L6 cells. The class given is cell-based.
The target is the same in experiment [9]. Nature of the experiment: Inhibition of PTP1B in Rattus norvegicus (rat) L6 cells assessed as cellular 2-deoxy-D-[U-14C]glucose uptake at 500 uM after 18 hr relative to control. It counts as cell-based.

Consider `O=C(CSc1nc2ccccc2[nH]1)Nc1cccc(C(=O)O)c1`, for which the Ratio came out at 10 in experiment [1] and 50 in [8]. Also, the Activity with Rattus norvegicus [2] is listed as 45%; with Rattus norvegicus [3], 48%; with Rattus norvegicus [4], 33%; in the experiment with Rattus norvegicus [5], 32%. In addition, the inhibition (as a rule, the share of the control response that was lost under treatment) came out at 24.2% in [6] and 18.5% in experiment [7].

For `Cc1ccc(C(=O)Nc2ccc(S(=O)(=O)O)c3cc(S(=O)(=O)O)cc(S(=O)(=O)O)c23)cc1NC(=O)c1cccc(NC(=O)Nc2cccc(C(=O)Nc3cc(C(=O)Nc4ccc(S(=O)(=O)O)c5cc(S(=O)(=O)O)cc(S(=O)(=O)O)c45)ccc3C)c2)c1`, in experiment [6], the inhibition amounted to 20%.

Regarding `CN(C)C(=N)NC(=N)N` [METFORMIN], the Activity in the experiment on Rattus norvegicus [2] turned out to be 17%; with Rattus norvegicus [3], 18%; in the experiment on Rattus norvegicus [4] it was 17%; with Rattus norvegicus [5], 13%. Also, the inhibition in experiment [9] turned out to be 30.2%.

With `CN(CCOc1ccc(CC2SC(=O)NC2=O)cc1)c1ccccn1` (stereo not drawn) [ROSIGLITAZONE], the Activity came to 24% in the experiment with Rattus norvegicus [2], 21% with Rattus norvegicus [3], 26% in the experiment on Rattus norvegicus [4] and 23% in the experiment with Rattus norvegicus [5].
